The values below come from publication PMC9030827, “In Vitro Effects of Mitochondria-Targeted Antioxidants in a Small-Cell Carcinoma of the Ovary of Hypercalcemic Type and in Type 1 and Type 2 Endometrial Cancer” (Biomedicines, 2022).

One assay has as its system HFF-1 cells. Nature of the assay: Neutral red (NR) cell viability assay. It counts as cell-based. Conditions: Homo sapiens. The protocol: (§1) Experiments were performed using the following cell lines: Ishikawa, Hec50co, COV434, and HFF-1. The Ishikawa cell line (RRID: CVCL_2529) was established from an endometrial adenocarcinoma. The Hec50co cell line (RRID: CVCL_4Y59) consists of poorly differentiated endometrial tumor cells isolated from a patient with advanced disease. Both the Ishikawa and Hec50co cell lines were kindly provided by Dr. Kim K. Leslie (The University of New Mexico Health Sciences Center, Albuquerque, NM, USA). COV434 (RRID: CVCL_2010) were initially isolated from a patient diagnosed with a granulosa cell tumor but were recently classified as cells from a small-cell carcinoma of the ovary, hypercalcemic type.The COV434 cells were purchased from the European Collection of Authenticated Cell Cultures (ECACC) (#07071909). HFF-1 (RRID: CVCL_3285) is an immortalized human foreskin fibroblasts cell line, obtained from the American Type Culture Collection (ATCC), which was used as control, as they are non-tumorous cells. The Ishikawa and Hec50co cells were maintained in Dulbecco’s Modified Eagle Medium/F12 (DMEM/F12) supplemented with 5% Foetal Bovine Serum (FBS). COV434 cells were maintained in DMEM/F12 supplemented with 10% FBS. HFF-1 were maintained in Roswell Park Memorial Institute 1640 (RPMI 1640) supplemented with 10% FBS. All mediums were supplemented with 1% AB-AM and all cells were kept at 37 °C with 5% CO2. The treatment with the compounds was done in the respective cell medium supplemented with 2% FBS and 24 h after platting the cells in the culture medium with 5% FBS to allow their adherence.
(§2) The Ishikawa, Hec50co, COV434, and HFF-1 cell lines were plated at a density of 5 × 10^4 cells/well in transparent 96-well plates. After 24 h, the cells were treated with Mito6_TPP, Mito6_picol., or Mito6_isoq. (0.01–100 μM) and incubated at 37 °C with 5% CO2 for 24, 48, or 72 h. […] The conditions of the methylthiazolyldiphenyl-tetrazolium bromide (MTT) assay were adapted from the work of Banerjee et al.. Briefly, MTT was added to a final concentration of 0.5 mg/mL, and the cells were incubated for 3 h at 37 °C with 5% CO2. After the 3 h, purple MTT formazan crystals were dissolved by agitation for 15 min in a solution of DMSO/isopropanol (ratio 3:1) and quantified spectrophotometrically at 540 nm. The neutral red (NR) assay conditions were based on the work developed by Repetto et al.. Briefly, after the incubation time, cells were incubated with NR at 40 μg/mL in an FBS-free cell medium for 3 h. The cells were then incubated with a solution of 50% ethanol (96% v/v), 49% deionized water, and 1% glacial acetic acid, with shaking for 15 min. The NR extracted from the cells was measured at 540 nm. The LDH cytotoxicity assay was not performed on the HFF-1 cells due to the lack of evidence of cell death at the concentrations tested. After the incubation time, this assay was performed using a Thermo Scientific Pierce LDH Cytotoxicity Assay Kit according to the manufacturer’s instructions. For all assays, the absorbance was read using a BioTek Synergy HTX Multi-Mode Microplate Reader equipped with BioTek Gen5 Data Collection and Analysis Software (BioTek Instruments, Winooski, VT, USA).
(§3) Data were evaluated using the one- or two-way analysis of variance (ANOVA) test followed by Bonferroni’s test for multiple comparisons. The data presented was expressed as mean ± SEM (Standard Error of the Mean) of a minimum of three and a maximum of seven independent experiments performed in triplicate. Values of p < 0.05 were considered statistically significant. Half of the maximal effective concentration (EC50) values were estimated by interpolation of dose-response curves and reported as a mean with a 95% confidence interval (CI 95%). All statistical analysis was performed using GraphPad Prism Software 8.0 (GraphPad Software, Inc., San Diego, CA, USA). […]

Assay [1] relates to COV434 cells. The assay is described as follows: Neutral red (NR) cell viability assay. Type of assay: cell-based. As to conditions: Homo sapiens. The protocol:
as §1, §2, §3

Assay [2] deals with Ishikawa cells. Nature of the assay: Neutral red (NR) cell viability assay. Conditions: Homo sapiens. It counts as cell-based. The protocol: as §1, §2, §3
Assay [3] deals with Hec50co cells. The assay is described as follows: Neutral red (NR) cell viability assay. As to conditions: Homo sapiens. It counts as cell-based. The method, then:
as §1, §2, §3

The test system of assay [4] is COV434 cells. The assay is described as follows: Cell morphology by Giemsa staining. Type of assay: cell-based, human. Conditions: COV434, 72 h; 5 μM Mito6_TPP, 20 μM Mito6_picol., 10 μM Mito6_isoq. The method, then: (§4) Morphological changes in all cell lines were evaluated by phase-contrast microscopy (Eclipse TS100 Inverted Microscope, Nikon, Tokyo, Japan) and Giemsa staining. […] The cells were plated in 24-well plates with coverslips using the densities of 1 × 10^5 cells/well in Ishikawa and Hec50co and 2.5 × 10^5 cells/well in COV434 and HFF-1. After adherence, the cells were treated with Mito6_TPP (5 μM), Mito6_picol. (20 μM), or Mito6_isoq. (10 μM) and incubated at 37 °C with 5% CO2 for 72 h. For Giemsa staining, the cells were fixated with paraformaldehyde 4% in Phosphate Buffered Saline (PBS) for 15 min, stained with Giemsa solution for 30 min, mounted with DPX, and observed through bright field microscopy. For Höechst staining, the cells were incubated with 0.5 μg/mL Höechst 33342 in PBS for 20 min in the dark, mounted in Fluoroshield, and observed under a fluorescence microscope equipped with an excitation filter with maximum transmission at 360/400 nm. In both stainings, the cells were observed using the microscope Eclipse CI (Nikon, Japan) and the images were processed with Nikon NIS Elements Image Software (Nikon, Japan).

Assay [5] deals with Ishikawa cells. Nature of the assay: Cell morphology by Giemsa staining. Type of assay: cell-based, human. Conditions: 72 h, 5 μM Mito6_TPP, 20 μM Mito6_picol., 10 μM Mito6_isoq. The protocol: as §4
For assay [6], the system named is COV434 cells. The assay is described as follows: Nuclear changes by Höechst staining. It counts as cell-based, human. Conditions: COV434, 72 h, 5 μM Mito6_TPP, 10 μM Mito6_isoq.; for Nucleus shape and chromatin condensation (Höechst staining): 20 μM Mito6_picol. The method, then: as §4
Assay [7] relates to Ishikawa cells. The assay is described as follows: Nuclear changes by Höechst staining. It counts as cell-based, human. As to conditions: 72 h, 5 μM Mito6_TPP, 10 μM Mito6_isoq.; for Nucleus shape and chromatin condensation (Höechst staining): 20 μM Mito6_picol. The method, then: as §4
The subject of assay [8] is Hec50co cells. The assay is described as follows: Nuclear changes by Höechst staining. Conditions: 72 h, 5 μM Mito6_TPP, 10 μM Mito6_isoq.; for Nucleus shape and chromatin condensation (Höechst staining): 20 μM Mito6_picol. It counts as cell-based, human. The protocol:
as §4

The mark [9] stands for this setting: COV434, 24 hours of incubation, read-out: EC50 (decrease of viability), NR assay.
[10] abbreviates: COV434, 48 h of incubation, read-out: EC50 (decrease of viability), NR Assay.
Setting [11] is: COV434, 72 hours of incubation, read-out: EC50 (decrease of viability), NR assay.
Where [12] appears, read: 24 h, read-out: EC50 (decrease of viability), NR assay.
[13] abbreviates: 48 h, read-out: EC50 (decrease of viability), NR Assay.
Where [14] appears, read: 72 h, read-out: EC50 (decrease of viability), NR assay.
The mark [15] stands for this setting: HFF-1, 48 h of incubation, read-out: EC50 (decrease of viability), NR Assay.
The mark [16] stands for this setting: 24 hours of incubation, read-out: EC50 (decrease of viability), NR assay.
[17] abbreviates: 48 h of incubation, read-out: EC50 (decrease of viability), NR Assay.
Where [18] appears, read: 72 hours of incubation, read-out: EC50 (decrease of viability), NR assay.
[19] abbreviates: Hec50co, 24 hours of incubation, read-out: EC50 (decrease of viability), NR assay.
[20] abbreviates: Hec50co, 48 h of incubation, read-out: EC50 (decrease of viability), NR Assay.
The mark [21] stands for this setting: Hec50co, 72 hours of incubation, read-out: EC50 (decrease of viability), NR assay.

The structures appear in SMILES notation. “Also recorded” adds a separate entry of the source. Where two headings read alike, the source gives them in different places.

On to `O=C(/C=C/c1ccc(O)c(O)c1)NCCCCCCCCCC[P+](c1ccccc1)(c1ccccc1)c1ccccc1` [Mito6_TPP], for which the EC50 was determined as 73.6 µM in the assay with HFF-1 cells (HFF-1, 24 h, read-out: EC50 (decrease of viability), NR assay); 57 µM in the assay on HFF-1 cells (HFF-1, 48 h, read-out: EC50 (decrease of viability), NR Assay); 45.1 µM in the assay with HFF-1 cells (HFF-1, 72 h, read-out: EC50 (decrease of viability), NR assay); 13.6 µM with COV434 cells [1] (setting [9]); 9.11 µM with COV434 cells [1] (setting [10]); 4.01 µM in the assay on COV434 cells [1] (setting [11]). In addition, the EC50 in the assay with Ishikawa cells [2] (setting [12]) turned out to be 33.2 µM; in the assay with Ishikawa cells [2] (setting [13]) it was 15.7 µM; with Ishikawa cells [2] (setting [14]) it was 11.2 µM; in the assay with Hec50co cells [3] (setting [12]), 53.6 µM; in the assay on Hec50co cells [3] (setting [13]), 35.4 µM; with Hec50co cells [3] (setting [14]), 23.9 µM. Besides, the “Cell morphology changes (Giemsa staining)” value (from here on “Cell morphology changes”) in the assay with COV434 cells [4] is “altered cell shapes and indications of chromatin condensation”; with Ishikawa cells [5], “altered cell shapes and indications of chromatin condensation”. The “Nuclear fragmentation (Höechst staining)” value in the assay with COV434 cells [6], with Ishikawa cells [7] and with Hec50co cells [8] was “nuclear fragmentation visible” throughout. Moreover, the “Nucleus shape and chromatin condensation (Höechst staining)” value (“Nucleus shape and chromatin condensation” below) in the assay with COV434 cells [6] was “changes in the nucleus shape and the chromatin condensation”; in the assay with Ishikawa cells [7], “changes in the nucleus shape and the chromatin condensation”; in the assay with Hec50co cells [8], “changes in the nucleus shape and the chromatin condensation”.

For the compound `O=C(/C=C/c1ccc(O)c(O)c1)NCCCCCCCCCC[n+]1ccc2ccccc2c1` [Mito6_isoq.], the EC50 with HFF-1 cells (HFF-1, 24 hours of incubation, read-out: EC50 (decrease of viability), NR assay) is above 100 µM; in the assay with HFF-1 cells (setting [15]) it was 97 µM; in the assay with HFF-1 cells (HFF-1, 72 hours of incubation, read-out: EC50 (decrease of viability), NR assay), 68.6 µM; in the assay with COV434 cells [1] (setting [9]) it was 51.6 µM; in the assay with COV434 cells [1] (setting [10]), 40 µM; in the assay with COV434 cells [1] (setting [11]), 30.8 µM. In addition, the EC50 is 55.3 µM in the assay with Ishikawa cells [2] (setting [16]); 36.9 µM in the assay with Ishikawa cells [2] (setting [17]); 28.9 µM in the assay with Ishikawa cells [2] (setting [18]); above 100 µM with Hec50co cells [3] (setting [19]); 150 µM in the assay with Hec50co cells [3] (setting [20]); 87.6 µM with Hec50co cells [3] (setting [21]). For the same compound, the “Cell morphology changes” value is on record as “cell shape alterations; also recorded: indications of chromatin condensation” in the assay with COV434 cells [4] and “cell shape alterations” in the assay with Ishikawa cells [5]. Besides, the “Nuclear fragmentation (Höechst staining)” value with COV434 cells [6], in the assay with Ishikawa cells [7] and with Hec50co cells [8] was “nuclear fragmentation visible” in each case. The “Nucleus shape and chromatin condensation” value in the assay on COV434 cells [6] was “changes in the nucleus shape and the chromatin condensation”; in the assay with Ishikawa cells [7] it was “changes in the nucleus shape and the chromatin condensation”; in the assay with Hec50co cells [8], “changes in the nucleus shape and the chromatin condensation”.

Turning to `Cc1cc[n+](CCCCCCCCCCNC(=O)/C=C/c2ccc(O)c(O)c2)cc1` [Mito6_picol.], the EC50 in the assay on HFF-1 cells (setting [15]) is above 100 µM; with COV434 cells [1] (setting [9]), 87.8 µM; with COV434 cells [1] (setting [10]) it was 62.5 µM; in the assay on COV434 cells [1] (setting [11]), 34.2 µM; in the assay on Ishikawa cells [2] (setting [16]) it was above 100 µM; in the assay with Ishikawa cells [2] (setting [17]), 84.4 µM. Further, the EC50 is 59.4 µM with Ishikawa cells [2] (setting [18]), above 100 µM in the assay on Hec50co cells [3] (setting [19]), 197 µM with Hec50co cells [3] (setting [20]) and 92 µM in the assay on Hec50co cells [3] (setting [21]). Further, the “Cell morphology changes” value in the assay on COV434 cells [4] and in the assay on Ishikawa cells [5] was “did not induce any morphological changes” throughout. Besides, the “Nucleus shape and chromatin condensation” value in the assay on COV434 cells [6], in the assay with Ishikawa cells [7] and in the assay with Hec50co cells [8] was “did not induce any morphological changes” each time.
